Test results: PubChem BioAssay (NCI)
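Interpolation was linear, between the two tested concentrations surrounding the appropriate level; five concentrations were tested over 48 hours in 96-well plates. GI50 marks 50% less growth. TGI: total growth inhibition.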

Assays:
Experiment in all cases: NCI tumour cell line growth inhibition, 48 h
[1] = system: RXF 393 renal
[2] = system: MDA-MB-231 breast
[3] = system: A498 renal
[4] = system: HL-60(TB) leukemia
[5] = system: PC-3 prostate
[6] = system: NCI-H226 lung
[7] = system: NCI/ADR-RES ovarian
[8] = system: NCI-H522 lung
[9] = system: HCT-15 colon
[10] = system: HS 578T breast

Compound | GI50 [1] | TGI [1] | GI50 [2] | TGI [2] | GI50 [3] | TGI [3] | GI50 [4] | TGI [4] | GI50 [5] | TGI [5] | GI50 [6] | TGI [6] | GI50 [7] | TGI [7] | GI50 [8] | TGI [8] | GI50 [9] | TGI [9] | GI50 [10] | TGI [10]
Nc1c(C(=O)c2ccccc2)cnn1-c1ccc(F)cc1 | > 25 µM | > 25 µM | > 25 µM | > 25 µM | > 25 µM | > 25 µM | > 25 µM | > 25 µM | > 25 µM | > 25 µM | > 25 µM | > 25 µM | > 25 µM | > 25 µM | > 25 µM | > 25 µM | > 25 µM | > 25 µM | > 25 µM | > 25 µM
O=c1[nH]c2ccc(O)cc2o1 | – | > 100 µM | – | > 100 µM | – | > 100 µM | – | > 100 µM | – | > 100 µM | – | > 100 µM | – | > 100 µM | – | > 100 µM | – | > 100 µM | – | > 100 µM
COC(=O)C1=CN(CC2=CC(=O)C(C)=CC2=O)C=C(C(=O)OC)C1c1cccc(OC)c1 | 17.4 µM | 39.8 µM | 13.4 µM | 31.2 µM | 18.6 µM | 34.6 µM | 4.76 µM | > 100 µM | 8 µM | 29.9 µM | 20 µM | 62.2 µM | 12.4 µM | 60.2 µM | 8.19 µM | > 31.9 µM | 16.6 µM | 39 µM | 8.66 µM | 44.9 µM
BrCc1cccc(C[P+](c2ccccc2)(c2ccccc2)c2ccccc2)c1 | 54.7 µM | > 100 µM | 33 µM | > 100 µM | 59.5 µM | > 100 µM | 13.9 µM | 49.9 µM | 6.26 µM | > 100 µM | 45 µM | > 100 µM | > 100 µM | > 100 µM | 6.88 µM | > 100 µM | > 100 µM | > 100 µM | 18.4 µM | > 100 µM
COc1ccc(C2=C(c3ccc(OC)cc3)C(=O)N3CCCC3C2)cc1 (stereo not given) | 17.7 µM | > 83.2 µM | 25.4 µM | > 73.9 µM | 45.9 µM | > 100 µM | 4.36 µM | 28.4 µM | 12.4 µM | > 100 µM | 37.1 µM | > 100 µM | 10.3 µM | > 100 µM | 14.1 µM | 96.8 µM | 0.733 µM | > 55.7 µM | 69.5 µM | > 100 µM
C[C@H](Nc1cc(Cl)nc2c1cnn2[C@@H]1O[C@H](COP(=O)(O)CP(=O)(O)O)[C@@H](O)[C@H]1O)c1ccccc1F | > 100 µM | > 100 µM | > 100 µM | > 100 µM | 32.3 µM | > 100 µM | > 100 µM | > 100 µM | > 100 µM | > 100 µM | > 100 µM | > 100 µM | > 100 µM | > 100 µM | > 100 µM | > 100 µM | > 100 µM | > 100 µM | > 100 µM | > 100 µM
